According to patent US11253594B2, “Drug combinations for protecting against neuronal cell death” (UNIVERSITY OF PITTSBURGH-OF THE COMMONWEALTH SYSTEM OF …, priority 2017, dated 2022):
Counter-ions that a name gives are not always drawn. Like-named read-outs stand apart in the source and are kept apart here.

How the values were obtained:
STHdh^Q111 cells [1] = assay: 384-well PI (propidium iodide) assay, protection from mHTT induced cell death; format: cell-based, mouse; settings: compound titrations, serum deprived STHdh^Q111 cells
Method: The well-established STHdh^Q111 cell model for HD was employed to identify compounds that can protect neuronal cells from mHTT-dependent cell death. […] The propidium iodide (PI) readout enables an unbiased assessment of cell death by measuring an irreversible step that is common to all cytotoxic mechanisms.
The stress conditions for testing compounds involved incubation of the cells in serum-free medium at 37° C. and 5% CO2.
Prior to compound treatment, medium was removed and the cells washed once with PBS (pH=7.4) after which 45 μl of complete medium was added. Compounds in 5 μl complete medium were added to cells. […] Compounds in serum free medium (5 μl) were added and cells were incubated at 37° C. and 5% CO2.
Image analysis was carried out using the Multiwavelength Cell Scoring application in the MetaXpress software. The nuclear compartment was identified in Ch1 with a threshold intensity of 2,000 above background and the Texas Red compartment was identified in Ch2 with a threshold intensity of 20,000 above background.
For the analyses presented here the Percent Recovery was calculated from the Percent PI positive cells by:
[formula] where positive controls are the STHdh^Q7 cells, and negative controls are the STHdh^Q111 cells treated with DMSO
The LOPAC library was screened in the 384-well PI assay at 30, 10, and 3 μM.

[2] = tested on: PKA phosphorylated at threonine 197 (pPKA) in STHdh^Q111 cells; assay: PKA activation assay (pPKA, high content analysis); format: cell-based, mouse; settings: 24 h serum free conditions
Method: The pPKA levels were examined at 24 hours after serum free conditions since this was the condition where the protection of the compounds was measured.
Cells were treated as described for testing in the 384-well PI assay. […] Plates were blocked with 3% BSA in PBS and were incubated with rabbit anti-PKA (αβγ catalytic subunit; EP2606Y; phospho-T197, abcam, Cambridge Mass.) mAb overnight at 4° C. […] Image analysis was carried out using the Multiwavelength Translocation application in the MetaExpress software. The nuclear compartment was identified in Ch1 with a threshold intensity of 5,000 above background (the nuclear mask). The nuclear mask was eroded 1 μm to create the Inner region mask in Ch2. […] The cytoplasmic pKA was measured in a […] ring around the nuclear mask.

STHdh^Q111 cells [3] = format: cell-based; settings: for toxicity / protection with or of the PKA inhibitor: STHdh^Q111 cells, PI assay conditions; for reduction in the level of protection compared to compound alone: co-incubation with 10 μM H89
PKA = PKA (Homo sapiens, UniProt P17612); settings: cited from earlier work
[4] = tested on: pCREB in the nucleus of STHdh^Q111 cells; assay: Nuclear pCREB high content analysis (surrogate marker for PKA activity); format: cell-based, mouse; settings: 10 μM H89 co-incubated with protective compounds
Source text: The concentrations used were chosen to be on plateau of their respective activity curves (see FIG. 3). […] Analysis is from triplicate samples run in four independent experiments (Error bars are +/−SE). T-test was used to assess changes in the percent recovery levels relative to the STHdh^Q111 cells treated with compound without H89. […] Analysis was from triplicate samples run in four independent experiments (Error bars are +/−SE). T-test was used to assess changes in the pCREB intensity relative to the STHdhQ111 cells treated with compound without H89.
H89 has been used extensively in the literature as a selective and potent inhibitor of PKA. If the protection from cell death by these compounds involved activation of PKA, then the addition of an inhibitor of PKA would be expected to reverse the protective effects of the compounds. […] Since the primary canonical mechanism of sodium nitroprusside is activation of PKG, and given that H89 is ˜10-fold selective for PKA over PKG, the absence of a marked effect with sodium nitroprusside is not unexpected. […] To confirm inhibition of PKA activity by H89 under the conditions of the PI assay, the levels of nuclear pCREB were measured using high content analysis. Consistent with the heterogeneity seen in the response of the STHdh^Q111 cells to protection by the compounds, a heterogeneous distribution of pCREB levels was also detected. […]

[5] = tested on: cAMP levels in STHdh^Q111 cells; assay: cAMP Enzyme Immunoassay
cells expressing mHTT [6] = assay: Example 2 screen of a larger mechanistically diverse chemical library for protection from mHTT-induced cytotoxicity
cells expressing mHTT [7] = tested on: cells expressing mHTT

Row | Compound | neuroprotective activity in the PI assay (STHdh^Q111 cells [1]) | further results
1 | CN1[C@@H]2CC[C@H]1CC(OC(=O)c1c[nH]c3ccccc13)C2.Cl (stereo partly shown) [3-tropanyl-indole-3-carboxylate hydrochloride] | confirmed neuroprotective activity | 
2 | C/C=C1\C(=O)C[C@H]2[C@@H]3CCC4=CC(=O)CC[C@]4(C)[C@H]3CC[C@]12C [(Z)-Gugglesterone] | confirmed neuroprotective activity | 
3 | CC(=O)Nc1nnc(S(N)(=O)=O)s1 [Acetazolamide] | did not protect | 
4 | C[C@H]1C[C@H]2[C@@H]3CCC4=CC(=O)C=C[C@]4(C)[C@@]3(Cl)[C@@H](O)C[C@]2(C)[C@@]1(O)C(=O)CO [Beclomethasone] | confirmed neuroprotective activity | 
5 | CN1[C@@H]2CC[C@H]1C[C@@H](OC(c1ccccc1)c1ccccc1)C2 [Benztropine mesylate] | confirmed neuroprotective activity | cytoplasmic pPKA, concentration response [2]: concentration-dependent increase; toxicity / protection with or of the PKA inhibitor (STHdh^Q111 cells [3]): increased toxicity
6 | CCN[C@H]1CN(CCCOC)S(=O)(=O)c2sc(S(N)(=O)=O)cc21 [Brinzolamide] | did not protect | 
7 | O=S(=O)(NCCNC/C=C/c1ccc(Br)cc1)c1cccc2cnccc12 [Combination H89] |  | selectivity for PKA over PKG (PKA): ~10 fold; toxicity / protection with or of the PKA inhibitor (STHdh^Q111 cells [3]): no significant protection or toxicity; levels of nuclear pCREB [4]: decreased
8 | CN1CCC(=C2c3ccccc3C=Cc3ccccc32)CC1 [Cyproheptadine hydrochloride] | confirmed neuroprotective activity | 
9 | O=c1[nH]c2ccccc2n1CCCN1CCC(n2c(=O)[nH]c3cc(Cl)ccc32)CC1 [Domperidone] | confirmed neuroprotective activity | reduction in the level of protection compared to compound alone (STHdh^Q111 cells [3]): 56%
10 | CCN[C@H]1C[C@H](C)S(=O)(=O)c2sc(S(N)(=O)=O)cc21 [Dorzolamide] | did not protect | 
11 | CCOc1ccc2nc(S(N)(=O)=O)sc2c1 [Ethoxzolamide] | confirmed neuroprotective activity | 
12 | C[C@]12CCC(=O)C=C1CC[C@@H]1[C@@H]2[C@@H](O)C[C@@]2(C)[C@H]1CC[C@]2(O)C(=O)CO [Hydrocortisone] | confirmed neuroprotective activity | 
13 | CCC(NC(C)C)C(O)c1ccc(O)c(O)c1 (stereo not shown) [Isotharine mesylate] | confirmed neuroprotective activity | cytoplasmic pPKA, concentration response [2]: concentration-dependent increase; statistical significance of change in cAMP levels ([5]; 15 and 30 minutes, t-test vs DMSO): statistically significant increase; reduction in the level of protection compared to compound alone (STHdh^Q111 cells [3]): 34%
14 | CCCn1c(C)c(C(=O)c2cccc3ccccc23)c2ccccc21 [JWH-015] | confirmed neuroprotective activity | protection from mHTT-induced cytotoxicity in the screen (cells expressing mHTT [6]): demonstrating protection
15 | Cc1c(OCC(F)(F)F)ccnc1C[S+]([O-])c1nc2ccccc2[nH]1 (stereo not shown) [Lansoprazole] | confirmed neuroprotective activity | 
16 | O=C(O)c1nn(Cc2ccc(Cl)cc2Cl)c2ccccc12 [Lonidamine] | confirmed neuroprotective activity | 
17 | CN1CCN(C2=Nc3ccccc3Oc3ccc(Cl)cc32)CC1 [Loxapine succinate] | confirmed neuroprotective activity | cytoplasmic pPKA, concentration response [2]: concentration-dependent increase; reduction in the level of protection compared to compound alone (STHdh^Q111 cells [3]): 52%

Row | Compound | neuroprotective activity in the PI assay (STHdh^Q111 cells [1]) | further results
18 | Cc1cccc(CN2CCN(C(c3ccccc3)c3ccc(Cl)cc3)CC2)c1 (stereo not shown) [Meclizine] | confirmed neuroprotective activity | 
19 | CN1CCN2c3ccccc3Cc3ccccc3C2C1 (stereo not shown) [Mianserin hydrochloride] | confirmed neuroprotective activity | cytoplasmic pPKA, concentration response [2]: concentration-dependent increase; reduction in the level of protection compared to compound alone (STHdh^Q111 cells [3]): 35%
20 | Cc1cccc(C(=O)NCN2CCN(c3ccccc3C#N)CC2)c1.O=C(O)/C=C\C(=O)O [PD 168,077 maleate] | confirmed neuroprotective activity | 
21 | COc1ccc(Cc2nccc3cc(OC)c(OC)cc23)cc1OC [Papaverine hydrochloride] | confirmed neuroprotective activity | cytoplasmic pPKA, concentration response [2]: less pronounced; reduction in the level of protection compared to compound alone (STHdh^Q111 cells [3]): 55%
22 | C[C@]12C=CC(=O)C=C1CC[C@@H]1[C@@H]2[C@@H](O)C[C@@]2(C)[C@H]1CC[C@]2(O)C(=O)CO [Prednisolone] | confirmed neuroprotective activity | 
23 | CN1CCN(c2ccc3ccccc3n2)CC1.O=C(O)/C=C\C(=O)O.O=C(O)/C=C\C(=O)O [Quipazine, N-methyl-, dimaleate] | confirmed neuroprotective activity | 
24 | N.N.N.N.N.N.N.N.N.N.N.N.N.N.[Cl-].[Cl-].[Cl-].[Cl-].[Cl-].[Cl-].[O-2].[O-2].[Ru+3].[Ru+3].[Ru+4] [Ruthenium red] | confirmed neuroprotective activity | 
25 | CNC(=O)COC(=O)N1CCC(CCc2ccc(Cl)cc2)CC1 [SA 57] |  | protection from mHTT-induced cytotoxicity in the screen (cells expressing mHTT [7]): demonstrating protection
26 | O=C(OCCN1CCCCC1)c1c[nH]c2ccccc12 [SB 203186] | confirmed neuroprotective activity | 
27 | C[C@]12C=CC(=O)C=C1CC[C@H]1[C@@H]3C[C@@H](O)[C@](O)(C(=O)CO)[C@@]3(C)C[C@H](O)[C@@]12F [Triamcinolone] | confirmed neuroprotective activity | 
28 | Cc1ccc(/C(=C\CN2CCCC2)c2ccccn2)cc1 [Triprolidine hydrochloride] | confirmed neuroprotective activity | 
29 | Cc1c(C)c2c(c(C)c1O)CCC(C)(CN1CCN(c3cc(N4CCCC4)nc(N4CCCC4)n3)CC1)O2.Cl.Cl (stereo not shown) [U-83836 dihydrochloride] | confirmed neuroprotective activity | 
30 | CCOC(=O)C1=C[C@]2(CC)CCCN3CCc4c(n1c1ccccc41)[C@@H]32 [Vinpocetine] | confirmed neuroprotective activity | 
31 | O=C(CCCCCCC(=O)Nc1ccccc1)NO [Vorinostat] | confirmed neuroprotective activity | 
32 | C=C[C@@]1(C)CC(=O)[C@]2(O)[C@@]3(C)[C@@H](O)CCC(C)(C)[C@@H]3[C@H](O)[C@H](OC(C)=O)[C@@]2(C)O1 [forskolin] |  | increase in cAMP over the DMSO control ([5]; 15 minutes after compound treatment in the presence of serum): 250 fold
33 | Tetradecylthioacetic acid | confirmed neuroprotective activity | 
34 | m-Iodobenzylguanidine hemisulfate | confirmed neuroprotective activity | 
